From patent US6060604A, “Pharmaceutical compounds comprising polyamines substituted with electron-affinic groups” (priority 1996, dated 2000)
Values joined by “and” are separate entries in the source; they are usually repeats but may differ in a detail not shown here. Equal values may be shown once. Where a name gives a salt, the structure may show the parent alone.

How the values were obtained:
hypoxic CHO cells [1] = assay: radiosensitizing potency on hypoxic CHO cells as a function of linker length (Table 3); type: cell-based, Chinese hamster; conditions: 8 Gy; for Sensitization Ratio at 20% Cell Survival Level: vs metronidazole, by linker (spacer chain) length
Protocol: The experiment shown in Table 3 is a later experiment which was conducted to determine the effect of the spacer chain (i.e., A) length. CHO cells were plated and allowed to attach to petri dishes for 3 h, then the media was replaced with 5 ml of Hank's Balanced Salt Solution with or without drugs. To induce cell hypoxia, the dishes were placed in sealed aluminum chambers which were degassed by pumping, and then back filled with 95% N2 /5% CO2. After 4 cycles, when the cells were severely hypoxic, the chambers were exposed to an X-ray beam generated by a General Electric Maxitron 300 therapy machine operated at 250 kVp and 20 mA (HVL 20 mm Al filter; dose rate at 2 Gy/min). The cells were cultured for 7 days in a 37° C. incubator and the resulting cell colonies were stained and counted.

H. pylori [2] = assay: disk diffusion method, H. pylori growth inhibition; type: cell-based
H. pylori [3] = assay: modified bottle broth method, H. pylori growth inhibition; type: cell-based
mice [4] = assay: later in vivo toxicity, oral, mice
[5] = tested on: MTG-B mammary adenocarcinoma tumors; assay: in vivo radiosensitization of MTG-B mammary adenocarcinoma tumors in mice; set-up: species or system female C3H mice
Protocol: To determine whether the pronounced effects of DATM in tissue culture can be duplicated in solid tumors, in vivo studies were performed on mice bearing MTG-B mammary adenocarcinoma tumors. The tumors were grown subcutaneously in the right flank of 7-week old female C3H mice. When the tumor diameter reached 8 mm, 8-carbon DATM was administered to groups of mice either intraperitoneally or orally at 2 g/kg, and 2 or 4 h later the tumors were subjected to an X-ray dose of 22 Gy. Control mice bearing identical tumors were either left untreated or treated with radiation alone or drug alone. For irradiation, the mice were placed into lead holders with the tumor-bearing leg exposed. After treatment, the tumor diameters were measured daily by caliper and the time required for tumors to grow to twice their initial size was calculated as tumor doubling time (TDT), with the treatment day defined as Day 0 for all calculations and plots, The survival time for mice was also recorded in all treatment groups.
To evaluate radiosensitization at different radiation doses, additional experiments were carried out where mice receiving DATM (2 g/kg body weight, given orally) were exposed to different radiation doses (0, 12, 22, 32 Gy).
FIG. 10 compares the effectiveness of oral DATM (2 g/kg body weight) to that of a much smaller DATM dose (25 mg/kg body weight) injected directly into the tumor.

H. pylori [6] = assay: agar dilution method, inhibition of H. pylori growth; type: cell-based, H. pylori strain ATCC43504
[7] = as radiosensitizers; cited from earlier work
hypoxic CHO cells [8] = assay: in vitro toxicity on hypoxic CHO cells, colony formation; type: cell-based, Chinese hamster; conditions: 0.2 mM, 12 hours at 37° C.
Protocol: Subsequently, hypoxic CHO cells were incubated with 0.2 mM DATM or 10 mM metro for 12 hours at 37° C.

CHO cells [9] = assay: thermo-radiosensitization of hypoxic CHO cells, colony forming assay (Table 4); type: cell-based, Chinese hamster; conditions: 41° C.; for combined drug/mild hyperthermia effect on radiosensitivity: hypoxic CHO cells; for Do: 30 min
Protocol: To examine the thermo-radiosensitizing effects of compounds (8) and (10), hypoxic CHO cells were irradiated (with or without drugs) with radiation doses ranging from 0-30 Gy. After irradiation, the chambers were placed either in a 37° C. or in a 41° C. water bath for 30 min. Then cell survival was evaluated by the colony forming assay.

hypoxic CHO cells [10] = assay: radiosensitizing hypoxic CHO cells, drugs given 2 hours at 4° C.; type: cell-based, Chinese hamster
mice [11] = assay: preliminary in vivo toxicity, intraperitoneal, mice
Protocol: In a preliminary in vivo study, two groups of mice were injected intraperitoneally with either 1 g/kg or 4 g/kg of DATM (formula 8).

[12] = tested on: Chinese hamster ovary (CHO) cells; assay: in vitro radiosensitization of hypoxic CHO cells, colony formation (Table 1); type: cell-based; conditions: drug dose 0.1 mM; for SFR (N2)(18 Gy), surviving fraction ratio: hypoxic
Protocol: Cells were plated and allowed to attach on glass petri dishes for 3 h, then the media was replaced with 5 ml of Hank's balanced salt solution (HBSS) with or without drugs. To induce cell hypoxia, the dishes were placed at room temperature into sealed aluminum chambers (8 dishes/chamber). […] This procedure was repeated 4 times with 5 min holding periods under positive gas pressure between evacuations. After 1 h, when the cells were severely hypoxic, the chambers were placed in 37° C. water bath for 1 hr. For oxic treatment groups, cells were placed in 37° C. incubators for 2 h with 5 ml of HBSS (±drugs). The chambers were placed on a rotating table and exposed to an X-ray beam generated by a General Electric Maxitron 300 therapy machine operated at 250 kVp and 20 mA (HVL 20 mm Al filter; dose rate at 2 Gy/min). After irradiation, cells were rinsed with HBSS, and covered with fresh media. Cells were cultured for 7 days in a 37° C. incubator. The resulting cell colonies were stained and counted.

CHO cells [13] = assay: radiosensitization potency on hypoxic CHO cells at 20% survival, single X ray dose 8 Gy (Table 2); type: cell-based, Chinese hamster; conditions: for IC80: Cricetulus griseus, CHO, read-out: drug molarity required to reduce cell survival to 20% of the untreated control value; for times more potent than metronidazole: hypoxic, 20% survival; for times more potent than metronidazole / Sensitization Ratio at 20% Survival Level: 8 Gy; for Sensitization Ratio at 20% Survival Level: vs metronidazole
Protocol: Cells were plated and allowed to attach on glass petri dishes for 3 h, then the media was replaced with 5 ml of Hank's balanced salt solution (HBSS) with or without drugs. To induce cell hypoxia, the dishes were placed at room temperature into sealed aluminum chambers (8 dishes/chamber). The chambers were degassed by pumping, and then back-filled with 95% N2 and 5% CO2. This procedure was repeated 4 times with 5 min holding periods under positive gas pressure between evacuations. After 1 h, when the cells were severely hypoxic, the chambers were placed in 37° C. water bath for 1 hr. For oxic treatment groups, cells were placed in 37° C. incubators for 2 h with 5 ml of HBSS (±drugs). The chambers were placed on a rotating table and exposed to an X-ray beam generated by a General Electric Maxitron 300 therapy machine operated at 250 kVp and 20 mA (HVL 20 mm Al filter; dose rate at 2 Gy/min). After irradiation, cells were rinsed with HBSS, and covered with fresh media. Cells were cultured for 7 days in a 37° C. incubator. The resulting cell colonies were stained and counted.
In the experiment shown in Table 2 hypoxic CHO cells were irradiated with a single X ray dose of 8 Gy, with or without drugs.

solubility in water = type: physicochemical; conditions: d-gluconic acid salt
Protocol: A solution of N, N, N', N'-tetra[2'-(2-methyl-5-nitro-1-imidazolyl)ethyl]-1,8-octanediamine free base was prepared by dissolving 0.5 g of N, N, N', N'-tetra[2'-(2-methyl-5-nitro-1-imidazolyl)ethyl]-1,8-octanediamine in 20 ml of CH2 Cl2. To this solution, 2 g of gluconic acid in 5 ml of water was added. To the resultant mixture, pure MeOH was added dropwise until the mixture became a homogeneous solution. To this, 50 ml of ether, followed by 200 ml of hexane were added to precipitate the solid. The reaction mixture was cooled to 4° C., and the precipitated salt was removed by filtration through a sintered glass funnel, washed with anhydrous ether and dried under vacuum.

[14] = DATM (2 g/kg, i.p. or oral) + radiation 22 Gy

Cc1ncc([N+](=O)[O-])n1CCN(CCCCCCCCN(CCn1c([N+](=O)[O-])cnc1C)CCn1c([N+](=O)[O-])cnc1C)CCn1c([N+](=O)[O-])cnc1C [8-carbon DATM, N, N, N', N'-tetra[2'(2-methyl-5-nitro-1-imidazolyl)ethyl]-1,8-octanediamine]
Sensitization Ratio at 20% Cell Survival Level (hypoxic CHO cells [1]): 510 | times more potent than metronidazole in killing H. pylori (H. pylori [2]): 22.1 times | ratio of the two MIC (metronidazole/DATM) (H. pylori [3]): 132.63 | times less toxic to mice than metronidazole (mice [4]; oral): at least 5 times | toxicity (mice [4]; oral doses as high as 20 g/kg): no toxicity was observed | sensitization effect of intratumor injection vs intraperitoneal ([5]; 25 mg/kg intratumor vs 2 g/kg i.p., 22 Gy): same sensitization effect as 2 g/kg given intraperitoneally | effectiveness of intratumor injection vs oral ([5]; 25 mg/kg intratumor vs 2 g/kg oral): much more effective than oral drug administration | life span of tumor-bearing mice ([5]; 2 g/kg orally, radiation doses 0, 12, 22, 32 Gy): pronounced increase in the life span of tumor-bearing mice at all radiation doses studied | tumor doubling time (TDT) ([5]; 8-carbon DATM alone): 4 days | survival time of mice ([5]; 8-carbon DATM alone, 2 g/kg, no radiation): 13 to 15 days | increase of survival time [5, 14]: 157-179% | survival time [5, 14]: 36 days and 39 days | effectiveness in delaying tumor growth relative to radiation alone ([5]; DATM + radiation): ~3 times | tumor doubling time (TDT) ([5]; DATM + radiation): 18 days | effectiveness of oral vs intraperitoneal ([5]; equal drug dose, 22 Gy): slightly less effective than an equal drug dose administered intraperitoneally | ratio of the MIC of metronidazole over that of DATM (H. pylori [6]): 35.37

COCC(O)Cn1ccnc1[N+](=O)[O-] (centres unmarked) [misonidazole]
toxicity at therapeutic levels [7]: highly toxic at therapeutic levels

Cc1ncc([N+](=O)[O-])n1CCN(CCCCCCCN(CCn1c([N+](=O)[O-])cnc1C)CCn1c([N+](=O)[O-])cnc1C)CCn1c([N+](=O)[O-])cnc1C [Linker Length 7]
Sensitization Ratio at 20% Cell Survival Level (hypoxic CHO cells [1]): 220

Cc1ncc([N+](=O)[O-])n1CCN(CCCCN(CCn1c([N+](=O)[O-])cnc1C)CCn1c([N+](=O)[O-])cnc1C)CCn1c([N+](=O)[O-])cnc1C [Compound 8, N, N, N', N'-tetra [2'-(2-methyl-5-nitro-1-imidazolyl)ethyl]-1,4-butanediamine]
toxic effects on CHO cells (hypoxic CHO cells [8]): No toxic effects were noted | combined drug/mild hyperthermia effect on radiosensitivity (CHO cells [9]): hypoxic cells become even more radiosensitive (smaller D0) than fully oxic cells | Do (CHO cells [9]; drug dose 50 μM): 0.8 Gy | radiosensitizing effectiveness, 0.2 mM DATM vs 10 mM metro (hypoxic CHO cells [10]): equally effective | toxicity (mice [11]; 1 g/kg intraperitoneally, mice): No toxicity was observed | lethality (mice [11]; 4 g/kg intraperitoneally, mice): all mice of the 4 g/kg group died | toxicity compared to metro (mice [11]; same dosage): roughly comparable to that of metro for the same dosage | Do [12]: 2.5 Gy | Ratio of RT Dose For 0.04 SF [12]: 1.5 | SFR (N2)(18 Gy), surviving fraction ratio [12]: 9.0 | IC80 (CHO cells [13]): 200 µM | times more potent than metronidazole (CHO cells [13]): 50 times | Sensitization Ratio at 20% Survival Level (CHO cells [13]): 50

Cc1ncc([N+](=O)[O-])n1CCN(CCCCN(CCn1c([N+](=O)[O-])cnc1C)CCn1c([N+](=O)[O-])cnc1C)CCn1c([N+](=O)[O-])cnc1C [Linker Length 4, N, N, N', N'-tetra [2'-(2-methyl-5-nitro-1-imidazolyl)ethyl]-1,4-butanediamine]
times more potent/effective than metronidazole (hypoxic CHO cells [1]): 50 times | Sensitization Ratio at 20% Cell Survival Level (hypoxic CHO cells [1]): 50

Cc1ncc([N+](=O)[O-])n1CCN(CCCCCCN(CCn1c([N+](=O)[O-])cnc1C)CCn1c([N+](=O)[O-])cnc1C)CCn1c([N+](=O)[O-])cnc1C [Linker Length 6]
Sensitization Ratio at 20% Cell Survival Level (hypoxic CHO cells [1]): 120

Cc1ncc([N+](=O)[O-])n1CCN(CCCCCN(CCn1c([N+](=O)[O-])cnc1C)CCn1c([N+](=O)[O-])cnc1C)CCn1c([N+](=O)[O-])cnc1C [5-carbon DATM, N, N, N', N'-tetra[2'-(2-methyl-5-nitro-1-imidazolyl)ethyl]-1,5-pentanediamine]
Sensitization Ratio at 20% Cell Survival Level (hypoxic CHO cells [1]): 80

Cc1ncc([N+](=O)[O-])n1CCN(CCCCCN(CCn1c([N+](=O)[O-])cnc1C)CCn1c([N+](=O)[O-])cnc1C)CCn1c([N+](=O)[O-])cnc1C [Compound 10, N, N, N', N'-tetra[2'-(2-methyl-5-nitro-1-imidazolyl)ethyl]-1,5-pentanediamine]
combined drug/mild hyperthermia effect on radiosensitivity (CHO cells [9]): hypoxic cells become even more radiosensitive (smaller D0) than fully oxic cells | Do (CHO cells [9]; drug dose 10 μM): 0.6 Gy | Do [12]: 1.9 Gy | Ratio of RT Dose For 0.04 SF [12]: 1.5 | SFR (N2)(18 Gy), surviving fraction ratio [12]: 21.4 | IC80 (CHO cells [13]): 25 µM | times more potent than metronidazole (CHO cells [13]): 400 times | Sensitization Ratio at 20% Survival Level (CHO cells [13]): 400

Cc1ncc([N+](=O)[O-])n1CCN(CCCCCCCCN(CCn1c([N+](=O)[O-])cnc1C)CCn1c([N+](=O)[O-])cnc1C)CCn1c([N+](=O)[O-])cnc1C [Example 5, N, N, N', N'-tetra[2'-(2-methyl-5-nitro-1-imidazolyl)ethyl]-1,8-octanediamine gluconic acid salt]
solubility in water (solubility in water): highly soluble in water
